Assay results reported in PubChem BioAssay (NCI).
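Test compounds were applied to cells in 96-well plates for 48 hours at 5 doses. Definition used: TGI = concentration required for complete inhibition of growth.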

Assays:
Assay in all cases: NCI anticancer screen, dose series, 48 h
[1] = system: 786-0 renal
[2] = system: A498 renal
[3] = system: A549 NSCLC
[4] = system: ACHN renal
[5] = system: BT-549 breast
[6] = system: CAKI-1 renal
[7] = system: CCRF-CEM leukemia
[8] = system: COLO 205 colon
[9] = system: DU-145 prostate
[10] = system: EKVX NSCLC
[11] = system: HCC-2998 colon
[12] = system: HCT-116 colon
[13] = system: HCT-15 colon
[14] = system: HOP-62 NSCLC
[15] = system: HOP-92 NSCLC
[16] = system: HS 578T breast
[17] = system: HT29 colon
[18] = system: IGROV1 ovarian
[19] = system: K-562 leukemia
[20] = system: KM12 colon
[21] = system: LOX IMVI melanoma
[22] = system: M14 melanoma
[23] = system: MALME-3M melanoma
[24] = system: MCF7 breast
[25] = system: MDA-MB-231 breast
[26] = system: MDA-MB-435
[27] = system: MDA-N
[28] = system: MOLT-4 leukemia
[29] = system: NCI-H226 lung
[30] = system: NCI-H23 lung
[31] = system: NCI-H460 lung
[32] = system: NCI-H522 lung
[33] = system: NCI/ADR-RES ovarian
[34] = system: OVCAR-3 ovarian
[35] = system: OVCAR-4 ovarian
[36] = system: OVCAR-5 ovarian
[37] = system: OVCAR-8 ovarian
[38] = system: PC-3 prostate
[39] = system: RPMI-8226 leukemia
[40] = system: RXF 393 renal
[41] = system: SF-268 CNS
[42] = system: SF-295 CNS
[43] = system: SF-539 CNS
[44] = system: SK-MEL-2 melanoma
[45] = system: SK-MEL-28 melanoma
[46] = system: SK-MEL-5 melanoma
[47] = system: SK-OV-3 ovarian
[48] = system: SN12C renal
[49] = system: SNB-19 CNS
[50] = system: SNB-75 CNS
[51] = system: SR leukemia
[52] = system: SW-620 colon
[53] = system: T-47D breast
[54] = system: TK-10 renal
[55] = system: U251 CNS
[56] = system: UACC-257 melanoma
[57] = system: UACC-62 melanoma
[58] = system: HL-60(TB) leukemia
[59] = system: UO-31 renal

C=C(C)C(=O)O[C@@H]1C[C@@]2(C)O[C@@H]2C[C@H](O)/C(C)=C/[C@H]2OC(=O)C(=C)[C@@H]21
TGI [1]: > 100 µM | TGI [2]: > 100 µM | TGI [3]: > 100 µM | TGI [4]: > 100 µM | TGI [5]: > 100 µM | TGI [6]: 67.4 µM | TGI [7]: 63.6 µM | TGI [8]: > 100 µM | TGI [9]: > 100 µM | TGI [10]: > 100 µM | TGI [11]: > 100 µM | TGI [12]: > 100 µM | TGI [13]: > 100 µM | TGI [14]: > 100 µM | TGI [15]: > 100 µM | TGI [16]: > 100 µM | TGI [17]: > 100 µM | TGI [18]: > 100 µM | TGI [19]: > 100 µM | TGI [20]: > 100 µM | TGI [21]: > 100 µM | TGI [22]: > 100 µM | TGI [23]: 57.2 µM | TGI [24]: > 100 µM | TGI [25]: > 100 µM | TGI [26]: > 100 µM | TGI [27]: > 100 µM | TGI [28]: > 100 µM | TGI [29]: > 100 µM | TGI [30]: > 100 µM | TGI [31]: > 100 µM | TGI [32]: 31.6 µM | TGI [33]: > 100 µM | TGI [34]: > 100 µM | TGI [35]: 78.9 µM | TGI [36]: > 100 µM | TGI [37]: > 100 µM | TGI [38]: > 100 µM | TGI [39]: > 100 µM | TGI [40]: > 100 µM | TGI [41]: > 100 µM | TGI [42]: > 100 µM | TGI [43]: > 100 µM | TGI [44]: > 100 µM | TGI [45]: 56.5 µM | TGI [46]: > 100 µM | TGI [47]: > 100 µM | TGI [48]: > 100 µM | TGI [49]: > 100 µM | TGI [50]: > 100 µM | TGI [51]: > 100 µM | TGI [52]: 38.9 µM | TGI [53]: > 100 µM | TGI [54]: > 100 µM | TGI [55]: > 100 µM | TGI [56]: > 100 µM | TGI [57]: > 100 µM

COc1ccc(C2=CC(C(C)=C(C(N)=O)C(N)=O)C=C(c3ccc(Br)cc3)C2)c(OC)c1 (centres undefined)
TGI [1]: > 100 µM | TGI [2]: > 100 µM | TGI [3]: > 100 µM | TGI [4]: > 100 µM | TGI [5]: > 100 µM | TGI [6]: > 100 µM | TGI [7]: > 100 µM | TGI [8]: > 100 µM | TGI [9]: > 100 µM | TGI [10]: > 100 µM | TGI [11]: > 100 µM | TGI [12]: > 100 µM | TGI [13]: > 100 µM | TGI [58]: > 100 µM | TGI [14]: > 100 µM | TGI [15]: > 100 µM | TGI [16]: > 100 µM | TGI [17]: > 100 µM | TGI [18]: > 100 µM | TGI [19]: > 100 µM | TGI [20]: > 100 µM | TGI [21]: > 100 µM | TGI [22]: > 100 µM | TGI [24]: > 100 µM | TGI [25]: > 100 µM | TGI [26]: > 100 µM | TGI [27]: > 100 µM | TGI [28]: > 100 µM | TGI [29]: > 100 µM | TGI [30]: > 100 µM | TGI [31]: > 100 µM | TGI [32]: > 100 µM | TGI [33]: > 100 µM | TGI [34]: > 100 µM | TGI [35]: > 100 µM | TGI [36]: > 100 µM | TGI [37]: > 100 µM | TGI [38]: > 100 µM | TGI [39]: > 100 µM | TGI [40]: > 100 µM | TGI [41]: > 100 µM | TGI [42]: > 100 µM | TGI [44]: > 100 µM | TGI [45]: > 100 µM | TGI [46]: > 100 µM | TGI [47]: > 100 µM | TGI [48]: > 100 µM | TGI [49]: > 100 µM | TGI [50]: > 100 µM | TGI [51]: > 100 µM | TGI [52]: > 100 µM | TGI [53]: > 100 µM | TGI [54]: > 100 µM | TGI [55]: > 100 µM | TGI [56]: > 100 µM | TGI [57]: > 100 µM | TGI [59]: > 100 µM
